Test results from patent US11771730B2, “Combination of Rhodiola and Astragalus for the treatment of neurodegenerative diseases” (HUMAN BY NATURE, priority 2018, dated 2023).

What was measured:
[1] = tested on: DNA repair systems in HepG2 cells; test: DNA repair (Excision/Resynthesis, BER and NER) on lesion plasmid chip with extracts of treated HepG2 cells; type: cell-based; conditions: EMS alone
[2] = tested on: differentiated SH-SY5Y (cells) exposed to Aftin-5; test: Curative test, Alzheimer model induced by Aftin-5 (10 μM): neurite length and cell counts; type: cell-based, human; conditions: 10 μM Aftin-5 for 48 hours
Experimental: All tests were performed in three technical replicates using 96-well microplates. After inoculation, SH-SY5Y cells were differentiated by exposure to retinoic acid (10 μM) for 4 days.
After each test, the cells were fixed using a mixture of methanol and acetone at room temperature for 5 minutes, before staining the nuclei with Hoechst and immunostaining the B3 tubulin (secondary antibody conjugated to an Alexa 488 fluorochrome).
Models of neurodegenerative diseases can be established in the laboratory using differentiated neuronal cell lines. Using chemical inducers (Aftin-5, in this case), a model of Alzheimer's disease can be obtained with the human neuroblastoma cell line SH-SY5Y. The neuroprotective and curative properties of the combination of extracts are evaluated following neurotoxic aggression by counting neurons and measuring the length of neurites.
The cells were exposed for 2 days with 10 μM of Aftin-5 alone. […] After fixation and labeling, neurite outgrowth and cell counts were evaluated using MetaXpress (Molecular Devices).
The images were obtained using an ImageXpress® Micro XLS (Molecular Devices) automated microscope with a 20× objective. […] Four fields per well were recorded and analyzed individually.
The images were analyzed using MetaXpress (Molecular Devices) software.

| Structure (SMILES) | effect of genotoxic on repair of photoproducts (CPD-64), Nucleotide Excision Repair (NER) [1] | effect of genotoxic on Basic Excision Repair (BER) ([1]; at least at the highest concentration tested (1 mM)) | neurite length compared to the control (inducer alone) [2] |
| --- | --- | --- | --- |
| CCOS(C)(=O)=O [EMS, ethyl methane sulfonate] | not affected | exclusively stimulates Basic Excision Repair (BER) | – |
| CC[C@H](CO)Nc1nc(N(C)c2ccccc2)c2ncn(C(C)C)c2n1 [Aftin-5] | – | – | significant reduction in neurite length |
